Measured values reported in patent US20100226857A1, “TUMOR CELL DIFFERENTIATION AGENTS AS CHEMICAL INHIBITORS AND TREATMENTS FOR INTRACELLULAR PARASITES” (priority 2006, published 2010).

How the values were obtained:
[1] = system: MCF-7 human breast cancer cells; test: ESR free radical (ROS) measurement in MCF-7 cell suspensions with DMPO; assay type: cell-based; conditions: for relative peak heights of the ESR signals (mean±range, n=2): 1×10^6 MCF-7 cells, 5 min at 37° C.
Protocol: Free Radical Measurements: All ESR measurements were conducted using a Bruker EMIR spectrometer (Bruker Instruments Inc., Billerica, Mass.) and a flat-cell assembly. Hyperfine couplings were measured (to 0.1 G) directly from magnetic field separation using potassium tetraperoxochromate (K3CrO8) and 1,1-diphenyl-2-picrylhydrazyl as reference standards. The relative radical concentration was estimated by multiplying half of the peak height by (ΔHpp)^2, where (ΔHpp) represents peak-to-peak width. The Acquisit program was used for data acquisitions and analyses. MCF-7 cells (2.0×10^6 cells/60-mm^2 dish) were harvested 48 h after plating by trypsinization and collected at room temperature by centnfugation (225 g, 5 min). Cells were washed once with ice-cold PBS and resuspended in ice-cold PBS at 2×10^6 cells/ml. Radical production was measured in the presence of the spin trap 5,5-dimethyl-1-pyrroline-N-oxide (DMPO; Aldrich Chemical Co., Milwaukee, Wis.). DMPO (200 mM) and 1×10^6 cells test agents were mixed in 1.0 ml of PBS, incubated at 37° C. for 5 mm, and then transferred to a flat cell for ESR measurements.

MCF-7 cells [2] = test: Colorimetric determination of reduced and oxidized glutathione; assay type: cell-based, human; conditions: after 1 h, P<0.05
Protocol: Colorimetric Determination of Reduced and Oxidized Glutathione: The GSH and GSSG concentrations in MCF-7 cells (3×10^6 cell/60 mm^2 dish) were measured enzymatically using the GSHI GSSG-412 kit (Oxis Research, Portland, Oreg.). GSSG and GSH standards were prepared in 5% metaphosphoric acid. Cell samples were prepared in 5% metaphosphoric acid with or without 1-methyl-2-vinyl-pyridium trifluoromethane sulfonate, a GSH-specific scavenger. Ellman's reagent (5′,5-dithiobis-2-nitrobenzoic acid) reacts with GSH to form a product with an absorption maximum at 412 nm. GSSG was determined using glutathione reductase to reduce GSSG to GSH followed by reaction with Ellman's reagent.

MCF-7 cells [3] = test: Comet assay for DNA damage; assay type: cell-based, human
Protocol: Comet Analysis: The comet assay is a single-cell gel electrophoresis method for measuring DNA damage. MCF-7 cells (2×10^5/35-mm^2 dish) were treated 12 h after plating. Twenty-four hours later, the cells were harvested and resuspended (1.5×10^5 cells/ml) in ice-cold PBS. The PBS cell suspension (50 ul) was mixed with 500 ul of 42° C. low-melting point agarose, spread evenly (75 ul) onto a Comet Slide (Trevigen, Gaithersburg, Md.), and allowed to harden. The slides were then immersed in ice-cold lysis solution (Trevigen) for 45 mm to lyse the cells and then transferred to freshly prepared alkali solution (300 mM NaOH and 1 mM EDTA, […]) for 45 mM. at room temperature to denature the DNA. Electrophoresis was performed at 4° C. Slides were air-dried overnight at room temperature and then stained with SYBR Green (Trevigen). Comets were visualized by fluorescence microscopy at 630× magnification with the aid of an antifade solution. Comet images were analyzed using the LAI Automated Comet Assay Analysis System (Loats Associates, Inc., Westminster, Md.). DNA damage was quantified in 80 comets per treatment/experiment using the tail moment [Tail moment [(% DNA) (distance traveled)]].

MCF-7 cells [4] = test: Cell death ELISA (apoptosis); assay type: cell-based, human
Protocol: Cell Death Enzyme-Linked Immunosorbent Assay: We quantified cytoplasmic nucleosomes using the Cell Death Detection […] kit (Roche Molecular Biochemicals, Indianapolis, Ind.) in MCF-7 cells plated in triplicate into 96-well plates. The cytoplasmic fractions from attached cells in each well were assayed in duplicate for the presence of nucleosomes according to the directions from the suppliers. The apoptotic response was measured by the nucleosome-enrichment fraction calculated as the ratio of the absorbance (405 nm) of drug-treated cultures/solvent-exposed cultures.

T. gondii tachyzoites = test: NSC3852 inhibition of T. gondii tachyzoite proliferation in HS68 cells (Example 4); assay type: cell-based; conditions: Toxoplasma gondii, approximately 60 hours, n=5 experiments, read-out: median IC50 for inhibition of T. gondii tachyzoite proliferation
Protocol: Briefly, T. gondii tachyzoites (1×10^5) were introduced into individual wells in a 48-well culture dish containing confluent monolayers of host cells (normal human skin fibroblasts HS68). Approximately 60 hours later, the tachyzoites were harvested from the medium and counted. […] Data points wee the average of triplicate determinations at every concentration of NSC3852 used.

O=Nc1ccc(O)c2ncccc12 [NSC3852, 5-nitroso-8-quinolinol]
relative peak heights of the ESR signals (mean±range, n=2) ([1]; 2 uM): 70±4 mm | ESR signal indicative of ROS production in MCF-7 cells ([1]; 10 uM NSC3852, 8 uM NSC2039): indicative of the DMPO-OH adduct, was observed | relative peak heights of the ESR signals (mean±range, n=2) ([1]; 10 uM): 109±3 mm | decrease in [GSH]/[GSSG] compared with control cells (MCF-7 cells [2]): 20% | DNA damage (comet tail moment) (MCF-7 cells [3]): maximal at 24 h | time of peak apoptosis (MCF-7 cells [4]): 48 h | IC50 (T. gondii tachyzoites): 79 nM
